Read-outs that look alike come from different tables or passages of the source.
Legend:
[1] = system: basal ERK1/2 phosphorylation in Malme-3M cells; test: Cellular ERK 1/2 phosphorylation assay (Example A1); format: cell-based; conditions: Homo sapiens, 1 hour incubation, pERK normalized to total ERK, read-out: P-ERK Malme3-M IC50
How it was run: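 Malme-3M cells (24,000/well, RPMI-1640 with 10% FBS) were treated with compounds for 1 h at 37 °C, 1% DMSO final. Fixed, methanol-permeabilized cells were immunostained for pERK and total ERK and read by infrared fluorescence. pERK signal was normalized to total ERK.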

V600E full-length B-Raf = target: T1, V600E full-length B-Raf (Homo sapiens, UniProt P15056, V600E); test: B-Raf IC50 assay (Example A); format: biochemical
T1 construct: 1 μM FSBA-MEK and 20 nM V600E full-length B-Raf; made in house; host or cells: Sf9 insect cells (baculovirus)
T1 sequence (P15056 whole entry V600E): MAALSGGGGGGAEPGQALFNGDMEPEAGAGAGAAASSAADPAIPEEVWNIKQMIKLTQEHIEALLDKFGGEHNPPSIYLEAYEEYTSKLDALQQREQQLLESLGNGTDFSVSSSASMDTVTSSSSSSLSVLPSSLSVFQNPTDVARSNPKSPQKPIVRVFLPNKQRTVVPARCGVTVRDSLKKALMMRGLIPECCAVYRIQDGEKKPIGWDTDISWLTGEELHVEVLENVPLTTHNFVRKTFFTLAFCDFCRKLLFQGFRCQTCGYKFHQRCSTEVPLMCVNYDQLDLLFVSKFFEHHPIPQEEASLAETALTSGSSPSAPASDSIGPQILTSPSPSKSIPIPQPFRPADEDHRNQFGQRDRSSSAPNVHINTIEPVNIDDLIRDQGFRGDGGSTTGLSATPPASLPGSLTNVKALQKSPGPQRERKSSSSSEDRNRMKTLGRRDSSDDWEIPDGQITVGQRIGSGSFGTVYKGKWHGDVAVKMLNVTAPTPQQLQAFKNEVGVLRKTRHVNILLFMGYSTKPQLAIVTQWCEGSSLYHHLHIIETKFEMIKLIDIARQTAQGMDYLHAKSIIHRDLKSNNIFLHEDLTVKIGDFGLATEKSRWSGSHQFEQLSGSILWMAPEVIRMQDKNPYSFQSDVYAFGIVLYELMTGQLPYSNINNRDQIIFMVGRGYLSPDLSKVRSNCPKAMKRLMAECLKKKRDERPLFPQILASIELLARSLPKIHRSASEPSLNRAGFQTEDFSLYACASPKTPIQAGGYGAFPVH
How it was run: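 Sf9-expressed full-length V600E B-Raf (20 nM) phosphorylated 1 µM FSBA-modified wild-type MEK with 4 µM ATP plus [γ-33P]ATP in 25 mM Pipes pH 7.2, 100 mM KCl, 10 mM MgCl2. Enzyme and substrate were preincubated 15 min, and the reaction ran 60 min at 22 °C. It was TCA-quenched and filter-captured, and incorporated radioactivity was scintillation-counted.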

[2] = system: subcutaneous LOX xenografts; test: Tumor growth inhibition (LOX), Example A2; format: in vivo; conditions: female nude mice, LOX xenograft; for Tumor Volume (mm^3) Day 1: 10 mg/kg PO on days 1-4, Day 1; for Tumor Volume (mm^3) Day 3: 10 mg/kg PO on days 1-4, Day 3; for Tumor Volume (mm^3) Day 5: 10 mg/kg PO on days 1-4, Day 5
Method: (§1) Female nude mice were implanted subcutaneously on the right flank with approximately 3.5×10^6 LOX cells in 100 μL PBS. Five to seven days later, tumors were measured and mice were randomized into groups of six with average tumor volume in each group of approximately 200 mm^3. Examples 3 and 28 were dissolved in 80% PEG400/20% ethanol before dosing, and administered PO at a volume of 5 mL/kg. Dosing was vehicle alone on days 1, 2, 3 and 4; and Examples 3 and 28 at 10 mg/kg on days 1, 2, 3 and 4. Animal weights and tumor volumes were measured using electronic calipers on day 5. Tumor volume was calculated using the formula: volume=(width2×length)/2.

[3] = system: subcutaneous LOX xenografts; test: Tumor growth inhibition (LOX), Example A3; format: in vivo; conditions: female nude mice, LOX xenograft
Method: as §1, with “mm^3. Example 23 was” for “mm^3. Examples 3 and 28 were”, “and Example 23” for “and Examples 3 and 28”, “at 5” for “at 10”, “formula: volume=(width^2×length)/2.” for “formula: volume=(width2×length)/2.”

[4] = B-Raf V600E assay of Example A, read-out: IC50
[5] = [γ-33P]ATP incorporation into FSBA-MEK, 4 μM ATP, read-out: BRAF V600E IC50

SMILES | IC50 (V600E full-length B-Raf; [4]) [µM] | IC50 (V600E full-length B-Raf; [5]) [µM] | IC50 [1] [nM] | IC50 (V600E full-length B-Raf; BRAF V600E IC50 (μM), [γ-33P]ATP incorporation into FSBA-MEK, 4 μM ATP) [µM] | Tumor Volume (mm^3) Day 1 [2] [mm^3] | Tumor Volume (mm^3) Day 3 [2] [mm^3] | Tumor Volume (mm^3) Day 5 [2] [mm^3] | Tumor Volume (mm^3) Day 1 ([3]; 5 mg/kg PO on days 1-4, Day 1) [mm^3] | Tumor Volume (mm^3) Day 3 ([3]; 5 mg/kg PO on days 1-4, Day 3) [mm^3] | Tumor Volume (mm^3) Day 5 ([3]; 5 mg/kg PO on days 1-4, Day 5) [mm^3]
CCCS(=O)(=O)Nc1ccc(F)c(NC(=O)c2cccc3c(N)ncnc23)c1Cl [Example 3, 4-Amino-quinazoline-8-carboxylic acid [2-chloro-6-fluoro-3-(propane-1-sulfonylamino)-phenyl]-amide] | < 0.1 |  | 7.23 | 0.00053 | 190.33 | 151.33 | 118.41 |  |  | 
CCCS(=O)(=O)Nc1ccc(F)c(NC(=O)c2cccc3c(N)ncnc23)c1C#N [Example 28, 4-Amino-quinazoline-8-carboxylic acid [2-cyano-6-fluoro-3-(propane-1-sulfonylamino)-phenyl]-amide] | < 0.1 | 0.00011 | 14.4 |  | 190.71 | 176.38 | 219.31 |  |  | 
CCCS(=O)(=O)Nc1ccc(F)c(NC(=O)c2cc(C)cc3c(N)ncnc23)c1F [Example 70, 4-Amino-6-methyl-quinazoline-8-carboxylic acid [2,6-difluoro-3-(propane-1-sulfonylamino)-phenyl]-amide] | < 0.1 | 0.0014 | 8.59 |  |  |  |  |  |  | 
CCCS(=O)(=O)Nc1ccc(F)c(NC(=O)c2cc(C)cc3c(N)ncnc23)c1Cl [Example 77, 4-Amino-6-methyl-quinazoline-8-carboxylic acid [2-chloro-6-fluoro-3-(propane-1-sulfonylamino)-phenyl]-amide] | < 0.1 | 0.00045 | 7.83 |  |  |  |  |  |  | 
CCCS(=O)(=O)Nc1ccc(F)c(NC(=O)c2cc(F)cc3c(N)ncnc23)c1Cl [Example 78, 4-Amino-6-fluoro-quinazoline-8-carboxylic acid [2-chloro-6-fluoro-3-(propane-1-sulfonylamino)-phenyl]-amide] | < 0.1 | 0.00049 | 15.7 |  |  |  |  |  |  | 
CCCS(=O)(=O)Nc1ccc(F)c(NC(=O)c2cc(C)cc3cncnc23)c1F [Example 79, 6-Methyl-quinazoline-8-carboxylic acid [2,6-difluoro-3-(propane-1-sulfonylamino)-phenyl]-amide] | < 0.1 | 0.0588 | 254 |  |  |  |  |  |  | 

Now from value to compound, other results behind:

IC50 (V600E full-length B-Raf; [4]) [µM] | IC50 (V600E full-length B-Raf; [5]) [µM] | SMILES | IC50 [1] [nM] | IC50 (V600E full-length B-Raf; BRAF V600E IC50 (μM), [γ-33P]ATP incorporation into FSBA-MEK, 4 μM ATP) [µM] | Tumor Volume (mm^3) Day 1 [2] [mm^3] | Tumor Volume (mm^3) Day 3 [2] [mm^3] | Tumor Volume (mm^3) Day 5 [2] [mm^3] | Tumor Volume (mm^3) Day 1 ([3]; 5 mg/kg PO on days 1-4, Day 1) [mm^3] | Tumor Volume (mm^3) Day 3 ([3]; 5 mg/kg PO on days 1-4, Day 3) [mm^3] | Tumor Volume (mm^3) Day 5 ([3]; 5 mg/kg PO on days 1-4, Day 5) [mm^3]
< 0.1 | 0.00028 | Nc1ncnc2c(C(=O)Nc3c(F)ccc(NS(=O)(=O)CCCF)c3F)cccc12 [Example 23, 4-Amino-quinazoline-8-carboxylic acid [2,6-difluoro-3-(3-fluoro-propane-1-sulfonylamino)-phenyl]-amide] | 3.89 |  |  |  |  | 221.32 | 280.81 | 157.52
< 0.1 | 0.00042 | Nc1ncnc2c(C(=O)Nc3c(Cl)ccc(NS(=O)(=O)CCCF)c3F)ccnc12 [Example 67, 4-Amino-pyrido[3,2-d]pyrimidine-8-carboxylic acid [6-chloro-2-fluoro-3-(3-fluoro-propane-1-sulfonylamino)-phenyl]-amide] | 2.8 |  |  |  |  |  |  | 
< 0.1 | 0.0145 | NC(=O)c1ccc(NS(=O)(=O)CCCF)c(F)c1NC(=O)c1ccnc2c(N)ncnc12 [Example 68, 4-Amino-pyrido[3,2-d]pyrimidine-8-carboxylic acid [6-carbamoyl-2-fluoro-3-(3-fluoro-propane-1-sulfonylamino)-phenyl]-amide] | 124 |  |  |  |  |  |  | 
< 0.1 | 0.0195 | CCCS(=O)(=O)Nc1ccc(C#N)c(NC(=O)c2ccnc3c(N)ncnc23)c1F [Example 69, 4-Amino-pyrido[3,2-d]pyrimidine-8-carboxylic acid [6-cyano-2-fluoro-3-(propane-1-sulfonylamino)-phenyl]-amide] | 306 |  |  |  |  |  |  | 

From patent US20130018033A1, “RAF INHIBITOR COMPOUNDS AND METHODS OF USE THEREOF” (ARRAY BIOPHARMA INC., priority 2009, published 2013)
